Measured values: PubChem BioAssay AID1963835 (Molecular Pharmacology Branch, DTP, NCI, 2024)
Values joined by “and” are separate entries in the source; they are usually repeats but may differ in a detail not shown here. Equal values may be shown once.

System: 699152-130-R-J1-PDC complex spheroid viability
Assay: Anticancer human tumor 699152-130-R-J1-PDC patient-derived pancreatic carcinoma cell line growth inhibition [POLQ]
Details: for viability, T/C: stronger effect = lower value
Protocol: Multicellular complex tumor spheroid response to Polymerase (POL) inhibitors (novobiocin, ART-558, RP6685) in combination with a variety of drugs and investigational agents in selected tumor cell lines
The POL inhibitors (novobiocin, ART-558, and RP6685) were evaluated both individually and in combination with standard of care and investigational anticancer small molecules within a complex spheroid model of solid tumors. . Complex spheroids include a stromal component modeled by human endothelial cells (HUVEC) and fibroblasts modeled by human mesenchymal stem cells (MSCs). The concentration ranges selected for each drug and investigational agent were based upon clinically achievable concentrations if the clinical Cmax of the agent was known.
Compounds. The drugs and investigational agents: novobiocin (NSC847541), ART-558 (NSC835418), RP-6685 (NSC848927), peposertib (NSC802822), ceralasertib (NSC780249), elimusertib (NSC800525), camonsertib (NSC841442), AZD-1390 (NSC803789), olaparib (NSC753686), talazoparib (NSC767125), rucaparib (NSC756644), sotorasib (NSC818433), MRTX-1133 (NSC836407), SN-38 (NSC673596), topotecan (NSC609699), epotoside (NSC141540), doxorubicin (NSC123127), gemcitabine (NSC613327), 5-fluorouracil (NSC19893), paclitaxel (NSC125973), vemurafenib (NSC761431), MSA-2 (NSC828583), SN-011 (NSC837082), adavosertib (NSC754352), prexasertib (NSC758257), carboplatin (NSC241240) and oxaliplatin (NSC266046), were obtained from the National Cancer Institute (NCI) Developmental Therapeutics Program Chemical Repository (21). The FDA-approved anticancer drug set is available from the Developmental Therapeutics Program at https://dtp.cancer.gov/organization/dscb/obtaining/. […] The stock solutions were prepared in dimethyl sulfoxide (DMSO, Sigma-Aldrich, St. Louis, MO, cat. D2650), except for the platinum compounds which were prepared in saline (Quality Biological, Gaithersburg, MD, cat. 114-055-101), at 800-fold the tested concentration and stored at -70 degrees C prior to their use. All drugs and investigational agents were tested over a range starting from a high concentration at or near the clinical Cmax and decreasing in half-log increments. If the clinical Cmax for an agent had not been determined, the highest concentration tested was 10 microM, except for SN-38, which was tested at a high concentration of 1 microM.
Cell Culture. All cells were maintained in an incubator at 37 degrees C and 5% CO2 with 95% humidity. The PDC lines were cultured according to standard operating procedures established by the NCI PDMR (https://pdmr.cancer.gov). Table 3 of the manuscript, lists the cell lines along with the number of the three cell types plated to form the mct-spheroids and media for tumor cell growth. After thawing, all PDC lines, except 997537-175-T-J1-PDC and 415267-285-R-J2-PDC, were cultured in Matrigel-coated flasks prepared with a working solution of 1X Ham's F-12 nutrient mix, without supplementation (Thermo Fisher Scientific, cat. 11765054), 100 U/mL penicillin-streptomycin (Thermo Fisher Scientific, cat. 15140122), and 2.5% Matrigel (Corning Inc., Corning, NY, cat. 354248) for the first three passages. The two PDC lines 997537-175-T-J1-PDC and 415267-285-R-J2-PDC were cultured on uncoated flasks. The 857933-349-R-J2-PDC line was cultured in 6C/Colon 1B media containing advanced DMEM/F-12 (Thermo Fisher Scientific, cat. 12634028), 10 mM HEPES (Thermo Fisher Scientific, cat. 15630080), 1X GlutaMAX supplement (Thermo Fisher Scientific, cat. 35050061), 0.1 mg/mL primocin (InvivoGen, San Diego, CA, cat. ant-pm-2), 10% defined fetal bovine serum, heat inactivated (HyClone Laboratories Inc., Logan, UT, cat. SH30070.03HI), 50% L-WRN conditioned media (ATCC, cat. CRL-3276), 1.25 mM N-Acetyl-L-cysteine (Sigma-Aldrich, cat. A9165), 10 mM nicotinamide (Sigma-Aldrich, cat. N0636), 1X B-27 supplement (Thermo Fisher Scientific, cat. 17504044), 1X N-2 supplement (Thermo Fisher Scientific, cat. […]
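Also: spheroids exposed to agents for 7 days before viability reading.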
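For viability, T/C in this document: percent of DMSO vehicle control viability so 100% = vehicle and 0% = no viable signal.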

O=C(Nc1ccc(O)c(NS(=O)(=O)c2ccc(F)cc2)c1)c1ccc(-c2ccccc2)cc1
viability, T/C (compound 0.0316 µM): 114% and 90.3% and 92.6%
viability, T/C (compound 0.1 µM): 104% and 94.2% and 112%
viability, T/C (compound 0.316 µM): 101% and 103% (2×)
viability, T/C (compound 1 µM): 102% and 109% and 107%
viability, T/C (compound 3.16 µM): 106% and 108% and 112%
viability, T/C (compound 10 µM): 71.6% and 70% and 81.6%
IC50 (curve of compound): > 10000 nM

CCc1cc2c(N3CCc4c(cc(Cn5ccnc5)cc4-c4cn(C)nc4C(F)(F)F)C3=O)cc(C)nc2c(OC)n1
viability, T/C (compound 0.0316 µM): 102% and 78.7% and 85.8%
viability, T/C (compound 0.1 µM): 92.1% and 90.3% and 81.5%
viability, T/C (compound 0.316 µM): 89.2% and 94.7% and 93.9%
viability, T/C (compound 1 µM): 95.1% and 94.6% and 98.4%
viability, T/C (compound 3.16 µM): 102% and 105% (2×)
viability, T/C (compound 10 µM): 97% and 99% and 107%
IC50 (curve of compound): > 10000 nM

CC[C@@]1(O)C(=O)OCc2c1cc1n(c2=O)Cc2cc3c(CN(C)C)c(O)ccc3nc2-1
viability, T/C (compound 0.000316 µM): 93.1% and 110% and 102%
viability, T/C (compound 0.001 µM): 97.6% and 90% and 108%
viability, T/C (compound 0.00316 µM): 98.8% and 105% and 99.5%
viability, T/C (compound 0.01 µM): 94.2% and 111% and 93.4%
viability, T/C (compound 0.0316 µM): 72.9% and 81.9% and 79.4%
viability, T/C (compound 0.1 µM): 59.6% and 68.9% and 54.6%
IC50 (curve of compound): > 100 nM

CCc1c2c(nc3ccc(O)cc13)-c1cc3c(c(=O)n1C2)COC(=O)[C@]3(O)CC + COC1C(OC(N)=O)C(O)C(Oc2ccc3c(O)c(NC(=O)c4ccc(O)c(CC=C(C)C)c4)c(=O)oc3c2C)OC1(C)C
IC50 (curve of first compound, second compound 0.0316 µM): 22.6 nM
IC50 (curve of first compound, second compound 0.1 µM): 21.3 nM
IC50 (curve of first compound, second compound 0.316 µM): 25 nM
IC50 (curve of first compound, second compound 1 µM): 40.5 nM
IC50 (curve of first compound, second compound 3.16 µM): 25.6 nM
IC50 (curve of first compound, second compound 10 µM): 24.9 nM
viability, T/C (second compound 0.0316 µM, first compound 0.00316 µM): 73.5%
viability, T/C (second compound 0.0316 µM, first compound 0.01 µM): 51.3%
viability, T/C (second compound 0.0316 µM, first compound 0.0316 µM): 43.5%
viability, T/C (second compound 0.0316 µM, first compound 0.1 µM): 41.9%
viability, T/C (second compound 0.0316 µM, first compound 0.316 µM): 24.4%
viability, T/C (second compound 0.0316 µM, first compound 1 µM): 9.02%
viability, T/C (second compound 0.1 µM, first compound 0.00316 µM): 79.7%
viability, T/C (second compound 0.1 µM, first compound 0.01 µM): 49.5%
viability, T/C (second compound 0.1 µM, first compound 0.0316 µM): 45.1%
viability, T/C (second compound 0.1 µM, first compound 0.1 µM): 37.3%
viability, T/C (second compound 0.1 µM, first compound 0.316 µM): 26.5%
viability, T/C (second compound 0.1 µM, first compound 1 µM): 10.1%
viability, T/C (second compound 0.316 µM, first compound 0.00316 µM): 79%
viability, T/C (second compound 0.316 µM, first compound 0.01 µM): 46.1%
viability, T/C (second compound 0.316 µM, first compound 0.0316 µM): 47.6%
viability, T/C (second compound 0.316 µM, first compound 0.1 µM): 43.4%
viability, T/C (second compound 0.316 µM, first compound 0.316 µM): 22%
viability, T/C (second compound 0.316 µM, first compound 1 µM): 12.9%
viability, T/C (second compound 1 µM, first compound 0.00316 µM): 66.9%
viability, T/C (second compound 1 µM, first compound 0.01 µM): 57%
viability, T/C (second compound 1 µM, first compound 0.0316 µM): 51.8%
viability, T/C (second compound 1 µM, first compound 0.1 µM): 45%
viability, T/C (second compound 1 µM, first compound 0.316 µM): 23.1%
viability, T/C (second compound 1 µM, first compound 1 µM): 7.35%
viability, T/C (second compound 3.16 µM, first compound 0.00316 µM): 66.7%
viability, T/C (second compound 3.16 µM, first compound 0.01 µM): 51.6%
viability, T/C (second compound 3.16 µM, first compound 0.0316 µM): 46.9%
viability, T/C (second compound 3.16 µM, first compound 0.1 µM): 40.4%
viability, T/C (second compound 3.16 µM, first compound 0.316 µM): 28.5%
viability, T/C (second compound 3.16 µM, first compound 1 µM): 7.68%
viability, T/C (second compound 10 µM, first compound 0.00316 µM): 70.5%
viability, T/C (second compound 10 µM, first compound 0.01 µM): 55.7%
viability, T/C (second compound 10 µM, first compound 0.0316 µM): 43.6%
viability, T/C (second compound 10 µM, first compound 0.1 µM): 39.6%
viability, T/C (second compound 10 µM, first compound 0.316 µM): 28%
viability, T/C (second compound 10 µM, first compound 1 µM): 7.11%

CCc1cc2c(N3CCc4c(cc(Cn5ccnc5)cc4-c4cn(C)nc4C(F)(F)F)C3=O)ccnc2c(OC)n1
viability, T/C (compound 0.0316 µM): 88.3% and 83.8% and 90.8%
viability, T/C (compound 0.1 µM): 81.6% and 90.7% and 76.9%
viability, T/C (compound 0.316 µM): 86.3% and 93.2% and 101%
viability, T/C (compound 1 µM): 102% and 81.5% and 103%
viability, T/C (compound 3.16 µM): 99.5% and 98.2% and 112%
viability, T/C (compound 10 µM): 89% and 94.7% and 88.3%
IC50 (curve of compound): > 10000 nM
